Legend:
Assay in all cases: relative viability (nuclei count vs DMSO), 5 days (fraction); higher = more cells survive
Ispinesib + Lapatinib = compound: Cc1ccc(C(=O)N(CCCN)[C@@H](c2nc3cc(Cl)ccc3c(=O)n2Cc2ccccc2)C(C)C)cc1 [Ispinesib] + CS(=O)(=O)CCNCc1ccc(-c2ccc3ncnc(Nc4ccc(OCc5cccc(F)c5)c(Cl)c4)c3c2)o1 [Lapatinib] (partner 2 µM)
Outline: (§1)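 The day after seeding in 1536-well plates, lung cancer cell lines were treated by pin tool with a single drug, or with a fixed anchor-drug dose together with five library-drug doses (not always all listed) in √10 steps. After 5 days, a combined fix-and-stain solution (final 0.05% Triton X-100, 1% formaldehyde, 1 ug/ml Hoechst) was added. Nuclei counted on 4× images gave relative viability as treated counts over vehicle counts, reported as the median of duplicate plates.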

Linsitinib + Pemetrexed = compound: C[C@]1(O)C[C@@H](c2nc(-c3ccc4ccc(-c5ccccc5)nc4c3)c3c(N)nccn32)C1 [Linsitinib] + Nc1nc2[nH]cc(CCc3ccc(C(=O)N[C@@H](CCC(=O)O)C(=O)O)cc3)c2c(=O)[nH]1 [Pemetrexed] (partner 0.2 µM)
Outline: as §1

Ispinesib + Bortezomib = compound: Cc1ccc(C(=O)N(CCCN)[C@@H](c2nc3cc(Cl)ccc3c(=O)n2Cc2ccccc2)C(C)C)cc1 [Ispinesib] + CC(C)C[C@H](NC(=O)[C@H](Cc1ccccc1)NC(=O)c1cnccn1)B(O)O [Bortezomib] (partner 0.002 µM)
Outline: as §1

Linsitinib + Trametinib = compound: C[C@]1(O)C[C@@H](c2nc(-c3ccc4ccc(-c5ccccc5)nc4c3)c3c(N)nccn32)C1 [Linsitinib] + CC(=O)Nc1cccc(-n2c(=O)n(C3CC3)c(=O)c3c(Nc4ccc(I)cc4F)n(C)c(=O)c(C)c32)c1 [Trametinib] (partner 0.02 µM)
Outline: as §1

Cell Line	relative viability (Ispinesib + Lapatinib; first compound 0.001 µM)	relative viability (Ispinesib + Lapatinib; first compound 0.003162 µM)	relative viability (Ispinesib + Lapatinib; first compound 0.01 µM)	relative viability (Ispinesib + Lapatinib; first compound 0.03162 µM)	relative viability (Ispinesib + Lapatinib; first compound 0.1 µM)	relative viability (Linsitinib + Pemetrexed; first compound 0.01 µM)	relative viability (Linsitinib + Pemetrexed; first compound 0.03162 µM)	relative viability (Linsitinib + Pemetrexed; first compound 0.1 µM)	relative viability (Linsitinib + Pemetrexed; first compound 0.3162 µM)	relative viability (Linsitinib + Pemetrexed; first compound 1 µM)	relative viability (Ispinesib + Bortezomib; first compound 0.001 µM)	relative viability (Ispinesib + Bortezomib; first compound 0.003162 µM)	relative viability (Ispinesib + Bortezomib; first compound 0.01 µM)	relative viability (Ispinesib + Bortezomib; first compound 0.03162 µM)	relative viability (Ispinesib + Bortezomib; first compound 0.1 µM)	relative viability (Linsitinib + Trametinib; first compound 0.01 µM)	relative viability (Linsitinib + Trametinib; first compound 0.03162 µM)	relative viability (Linsitinib + Trametinib; first compound 0.1 µM)	relative viability (Linsitinib + Trametinib; first compound 0.3162 µM)	relative viability (Linsitinib + Trametinib; first compound 1 µM)
NCI-H2126	0.719	0.804	0.846	0.781	0.534	0.707	0.67	0.779	0.511	0.598	1.1	1.14	1.24	1.14	0.773	0.568	0.552	0.533	0.509	0.473
LOU-NH91	0.785	0.799	0.779	0.447	0.271	0.405	0.345	0.394	0.357	0.392	0.507	0.507	0.575	0.444	0.395	0.766	0.727	0.779	0.56	0.715
NCI-H1792	0.876	1.05	0.843	0.418	0.314	1.05	0.695	0.891	0.51	0.321	1.14	1.02	1.09	0.797	0.337	0.506	0.432	0.335	0.32	0.335
NCI-H1651	0.974	1.02	1.04	0.234	0.187	0.345	0.489	0.56	0.608	0.596	0.934	1.16	0.926	0.796	0.712	0.827	0.861	0.884	0.777	0.824
HCC-366	1.03	1.12	1.33	0.0151	0.0387	0.138	0.0729	0.156	0.119	0.127	1.29	1.1	1.43	0.323	0.0344	0.369	0.381	0.402	0.317	0.202
EKVX	0.208	0.206	0.204	0.223	0.131		0.243	0.425	0.352	0.36	1.09	1.24	1.15	0.939	0.186		0.321	0.436	0.234	0.294
NCI-H1993	0.871	0.899	0.764	0.759	0.58	0.59	0.621	0.565	0.449	0.404	1.23	1.14	1.1	1.03	0.585	0.46	0.494	0.398	0.476	0.504
NCI-H23	0.915	1.16	1.04	0.245	0.293	0.78	0.474	0.786	0.394	0.419	0.977	1.09	1.6	0.331	0.241	0.49	0.371	0.337	0.244	0.256
HCC-827	0.194	0.194	0.181	0.189	0.0607	0.149	0.24	0.32		0.262	1.1	1.18	1.04	0.691	0.875	0.526	0.616	0.522		0.602
PC-3 [JPC-3]	0.456	0.486	0.439	0.413	0.318	1.13	1.04	1.2	0.891	0.665	0.796	0.869	0.903	0.763	0.297	0.691	0.766	0.668	0.591	0.545
NCI-H1355	1.09	0.93	1.22	0.644	0.3	1.11	0.759	0.945	0.798	0.637	1.28	1.23	1.43	0.815	0.293	0.424	0.353	0.352	0.323	0.246
NCI-H1975	0.931	0.907	0.71	0.302	0.179	0.287	0.239	0.293	0.287	0.289	0.471	0.437	0.331	0.19	0.261	0.396	0.336	0.331	0.308	0.272
NCI-H460	1.1	1.23	1.39	0.335	0.0345	0.0547	0.0538	0.065		0.0715	1.53	1.48		0.793	0.0396	0.136	0.137	0.196		0.0792
EPLC-272H	0.919	1.11	1.02	0.561	0.145	0.366	0.193	0.325	0.244	0.32	0.869	1.13	0.935	0.655	0.163	0.245	0.25	0.296		0.26
SK-LU-1	0.797	1.06	0.825	0.468	0.364	0.913	0.686	0.997	0.894	0.985	1.32	1.39	1.48	0.585	0.461	0.551	0.349	0.538	0.471	0.534

Reference: the supplement of paper PMC10307832
